# According to patent US20250230163A1, “SOLID FORMS OF HIV INTEGRASE INHIBITORS” (Gilead Sciences, Inc., priority 2023, published 2025):
# Columns and labels:
# [1] = Physical form stability on drying under ambient conditions; assay type: physicochemical
# Text: Compound of Formula I, Form II is a metastable methanol solvated phase. It was isolated when compound of Formula I, Form I was slurried in methanol for about 60 days and identified by x-ray of the wet cake. […] Compound of Formula I, Form III was also made when Form II was dried under ambient conditions.
# [2] = Hygroscopicity by dynamic vapor sorption (DVS); assay type: physicochemical; conditions: for solid form post DVS experiment: after sorption/desorption cycle up to 95% RH at 25° C.; for water absorbed (dynamic vapor sorption): up to 95% RH at 25° C.
# Description: Hygroscopicity was studied using dynamic vapor sorption (DVS, TA Q5000 SA, TA Instruments, New Castle, DE or DVS, DVS Intrinsic, Surface Measurement Systems, London, UK). A sample (1-20 mg) was placed in an aluminum DVS pan and loaded on the sample side of the twin pan balance. The water sorption and desorption were studied as a function of relative humidity (RH) at 25° C. In 10% RH increments, the relative humidity was increased from 5% RH to 95% RH and then decreased back to 5%. […] Data analysis was performed using Universal Analysis 2000 Version 4.7A (TA Instruments, New Castle, DE) for TA DVS runs and Microsoft Excel for SMS DVS runs.
Structure (SMILES),form conversion upon drying [1],solid form post DVS experiment [2],water absorbed (dynamic vapor sorption) [2]
"O=C(NCc1c(F)cc(F)cc1F)c1cn2c(c(O)c1=O)C(=O)N1CCCC[C@H]2C1 [Compound of Formula I, Form II, (7S)-12-hydroxy-1,11-dioxo-N-(2,4,6-trifluorobenzyl)-1,4,5,6,7,11-hexahydro-3H-2,7-methanopyrido[1,2-a][1,4]diazonine-10-carboxamide]","convert to compound of Formula I, Form III",–,–
"O=C(NCc1c(F)cc(F)cc1F)c1cn2c(c(O)c1=O)C(=O)N1CCCC[C@H]2C1 [Compound of Formula I, Form IV, (7S)-12-hydroxy-1,11-dioxo-N-(2,4,6-trifluorobenzyl)-1,4,5,6,7,11-hexahydro-3H-2,7-methanopyrido[1,2-a][1,4]diazonine-10-carboxamide]",–,not have changed form,about 3.5%
"O=C(NCc1c(F)cc(F)cc1F)c1cn2c(c(O)c1=O)C(=O)N1CCCC[C@H]2C1 [Compound of Formula I, Form I, (7S)-12-hydroxy-1,11-dioxo-N-(2,4,6-trifluorobenzyl)-1,4,5,6,7,11-hexahydro-3H-2,7-methanopyrido[1,2-a][1,4]diazonine-10-carboxamide]",–,not have changed form,about 0.097%
"O=C(NCc1c(F)cc(F)cc1F)c1cn2c(c(O)c1=O)C(=O)N1CCCC[C@H]2C1 [Compound of Formula I, Form III, (7S)-12-hydroxy-1,11-dioxo-N-(2,4,6-trifluorobenzyl)-1,4,5,6,7,11-hexahydro-3H-2,7-methanopyrido[1,2-a][1,4]diazonine-10-carboxamide]",–,not have changed form,about 0.87%
